ChEMBL document CHEMBL1681718, “Hepatitis C NS5B polymerase inhibitors: functional equivalents for the benzothiadiazine moiety” (Bioorg Med Chem Lett, 2011)

Experiments:
Hepatitis C virus [1] = assay: Antiviral activity against HCV 1b N infected in EN5-3 cells by SEAP reporter gene assay; assay type: functional, organism-based, Hepacivirus hominis; details: genotype 1b strain N
[2] = Inhibition of HCV 1b BK NS5B polymerase after 3 hrs by [3H]UTP incorporation assay; parameters: species or system Hepatitis C virus (isolate BK)
Hepatitis C virus [3] = assay: Antiviral activity against HCV 1a isolate H77 infected in EN5-3 cells by SEAP reporter gene assay; assay type: functional, organism-based, Hepacivirus hominis; details: genotype 1a H77, EN5-3
[4] = Inhibition of HCV 1a H77 NS5B polymerase after 3 hrs by [3H]UTP incorporation assay; parameters: species or system Hepatitis C virus (isolate H77)

Row | SMILES | EC50 (Hepatitis C virus [1]) | IC50 [2] | EC50 (Hepatitis C virus [3]) | IC50 [4]
1 | CC(C)(C)CC[C@@]1(C)C(=O)/C(=C2/C=Cc3ccccc3N2)C(=O)c2ccccc21 |  | 5550 nM |  | 1680 nM
2 | CC(C)CCC1=C/C(=C2\C(=O)c3ccccc3[C@@](C)(CCC(C)(C)C)C2=O)Nc2ccc(NS(C)(=O)=O)cc21 |  | 1020 nM |  | 4300 nM
3 | CN(C)C(=O)C1=C/C(=C2\C(=O)c3ccccc3[C@@](C)(CCC(C)(C)C)C2=O)Nc2ccc(NS(C)(=O)=O)cc21 | 99 nM | 238 nM | 932 nM | 72 nM
4 | CNC(=O)C1=C/C(=C2\C(=O)c3ccccc3[C@@](C)(CCC(C)(C)C)C2=O)Nc2ccc(NS(C)(=O)=O)cc21 | 245 nM | 333 nM | 1040 nM | 133 nM
5 | CCOC(=O)C1=C/C(=C2\C(=O)c3ccccc3[C@@](C)(CCC(C)(C)C)C2=O)Nc2ccc(NS(C)(=O)=O)cc21 | 660 nM | 739 nM | 3080 nM | 315 nM
6 | CC(C)(C)CC[C@@]1(C)C(=O)C(C2=NCc3cc(NS(C)(=O)=O)ccc3N2)=C(O)c2ccccc21 |  | 4200 nM |  | 830 nM
7 | CC(C)(C)CC[C@@]1(C)C(=O)C(C2=NS(=O)(=O)c3cc(NS(C)(=O)=O)ccc3N2)=C(O)c2ccccc21 | 2 nM | 7 nM | 4 nM | 4 nM

The remaining compounds from weak to strong by IC50 [2], led by results:

Row | EC50 (Hepatitis C virus [1]) | IC50 [2] | EC50 (Hepatitis C virus [3]) | IC50 [4] | SMILES
8 | 50 nM | 56 nM | 781 nM | 12 nM | CC(C)(C)CC[C@@]1(C)C(=O)/C(=C2/C=C(CO)c3cc(NS(C)(=O)=O)ccc3N2)C(=O)c2ccccc21
9 | 20 nM | 52 nM | 135 nM | 32 nM | CC1=C/C(=C2\C(=O)c3ccccc3[C@@](C)(CCC(C)(C)C)C2=O)Nc2ccc(NS(C)(=O)=O)cc21
10 | 22 nM | 29 nM | 82 nM | 17 nM | CC(C)(C)CC[C@@]1(C)C(=O)/C(=C2/C=Cc3cc(NS(C)(=O)=O)ccc3N2)C(=O)c2ccccc21
11 | 168 nM | 25 nM | 1200 nM | 15 nM | CC(C)(C)CC[C@@]1(C)C(=O)/C(=C2/C=C(C=O)c3cc(NS(C)(=O)=O)ccc3N2)C(=O)c2ccccc21
12 | 221 nM | 5 nM | 3320 nM | 3 nM | CC(C)(C)CC[C@@]1(C)C(=O)/C(=C2/C=C(C(=O)O)c3cc(NS(C)(=O)=O)ccc3N2)C(=O)c2ccccc21
